Results from patent US20240114940A1, “SACCHARIDE COMPOSITIONS HAVING SUCROSE-LIKE CHARACTERISTICS AND RELATED METHODS” (priority 2021, published 2024).

Legend:
Format in all cases: physicochemical
[1] = Breakdown products by GCMS without an amino acid present; conditions: pH 7, 160° C., 10 min
Method: (§1) Controls were prepared addition of 1 mL of pH 7 buffer to the amino acids. The samples were rapidly heated to 160° C. and held at this temperature for 10 min. Samples were rapidly cooled afterwards, and absorbance at 500 nm was measured for each reaction mixture. Volatiles were analysed using gas chromatography mass spectrometry (GCMS) analysis. An Agilent Technologies 5975B Inert XL MSD gas chromatography, single quadruple mass spectrometer was used for analysis of volatiles. Samples were added to separate GCMS headspace vials and weighed. 0.03 g of 0.01% 3-heptanone in water was added and the vial was sealed for GCMS solid phase micro extraction (SPME) analysis. Samples were analysed in a randomized order. Samples were incubated and agitated at 250 RPM, at 60° C. for 15 min prior to SPME analysis of volatiles. The SPME fibre (50/30 DVB/CAR/PDMS, 23 Ga) extracted for 10 min, then thermally desorbed at 250° C. for 5 min. A 30 m×0.25 mm×0.25 μm HP-5MS column was used (Phenomenex, UK). Oven temperature settings: 31° C.-5 min, 5° C./min to 150° C., 30° C./min to 240° C. Inlet settings: 250° C., pressure 10.4 psi, flow 11.2 mL/min, split ratio 7:1. MS operated in full scan mode from 40 to 400 m/z with a scan time of 0.2s. The peak area of the aroma compounds was compared to the peak of the internal standard 3-heptanone and corrected for the weight of the sample.
(§2) The concentration of the different classes of Maillard reaction breakdown products is presented in Tables 9B-E. The same data as Tables 9B-E is also presented in FIG. 27. Concentrations are in parts per billion of the difference non-enzymatic breakdown products for the different compositions at 160° C. analysed by GCMS.

[2] = Breakdown products by GCMS after Maillard reaction in the presence of Histidine; conditions: 160° C.; for 2-Butanone concentration / 2-Propanone, 1-hydroxy- concentration / Diacetyl (2,3-Butanedione) concentration: Carbonyls/ketones; for Furan, 2-methyl- concentration / Furfural concentration: Furans; for Pyrazine, 2,5-diethyl- concentration / Pyrazine, 2,5-dimethyl- concentration / Pyrazine, 2-ethyl-5-methyl- concentration / Pyrazine, ethyl- concentration / Pyrazine, methyl- concentration: Pyrazines
Method: as §1, §2

[3] = Breakdown products by GCMS after Maillard reaction in the presence of Tryptophan; conditions: with Tryptophan, pH 7, 160° C., 10 min
Method: as §1, §2

[4] = Breakdown products by GCMS after Maillard reaction in the presence of Leucine; conditions: Maillard reaction in the presence of Leucine, 160° C., GCMS; for 2-Butanone concentration / 2-Propanone, 1-hydroxy- concentration / Diacetyl (2,3-Butanedione) concentration: Carbonyls/ketones; for Furan, 2-methyl- concentration / Furfural concentration: Furans; for Pyrazine, 2,5-diethyl- concentration / Pyrazine, 2,5-dimethyl- concentration / Pyrazine, 2-ethyl-5-methyl- concentration / Pyrazine, ethyl- concentration / Pyrazine, methyl- concentration: Pyrazines; for Isovaleraldehyde (Butanal, 3-methyl-) concentration: Strecker aldehydes
Method: as §1, §2

2-Butanone concentration [2]	2-Propanone, 1-hydroxy- concentration [2]	Diacetyl (2,3-Butanedione) concentration [2]	Furan, 2-methyl- concentration [2]	Furfural concentration [2]	Pyrazine, 2,5-diethyl- concentration [2]	Pyrazine, 2,5-dimethyl- concentration [2]	Pyrazine, 2-ethyl-5-methyl- concentration [2]	Pyrazine, ethyl- concentration [2]	Pyrazine, methyl- concentration [2]	Compound	Concentration of 2-Butanone [3]	Concentration of 2-Propanone, 1-hydroxy- [3]	Concentration of Diacetyl (2,3-Butanedione) [3]	Concentration of Furan, 2-methyl- [3]	Concentration of Furan, 2-pentyl- [3]	Concentration of Furfural [3]	Concentration of Indole [3]	Concentration of Pyrazine, 2,5-diethyl- [3]	Concentration of Pyrazine, 2,5-dimethyl- [3]	Concentration of Pyrazine, 2-ethyl-5-methyl- [3]	other results
53.5 ppb	196.75 ppb	32.61 ppb	28.4 ppb	15.26 ppb	17.88 ppb	587.06 ppb	288.64 ppb	4.48 ppb	5.22 ppb	O=C[C@H](O)[C@@H](O)[C@H](O)CO [Xylose]	70.81 ppb	227.11 ppb	55.57 ppb	52.32 ppb	6.28 ppb	0.15 ppb	53.49 ppb	25 ppb	751.39 ppb	394.72 ppb	Concentration of 2-Butanone [1]: 75.3 ppb; Concentration of 2-Propanone, 1-hydroxy- [1]: 196.36 ppb; Concentration of 5-methyl furfural [1]: 27.19 ppb; Concentration of Diacetyl (2,3-Butanedione) [1]: 267.18 ppb; Concentration of Furan, 2-methyl- [1]: 7.83 ppb; Concentration of Furfural [1]: 65.56 ppb; Concentration of Pyrazine, ethyl- [3]: 13.61 ppb; Concentration of Pyrazine, methyl- [3]: 59.72 ppb; 2-Butanone concentration [4]: 212.85 ppb; 2-Propanone, 1-hydroxy- concentration [4]: 647.73 ppb; Diacetyl (2,3-Butanedione) concentration [4]: 458.75 ppb; Furan, 2-methyl- concentration [4]: 170.12 ppb; Furfural concentration [4]: 118.44 ppb; Pyrazine, 2,5-diethyl- concentration [4]: 84.11 ppb; Pyrazine, 2,5-dimethyl- concentration [4]: 2510.13 ppb; Pyrazine, 2-ethyl-5-methyl- concentration [4]: 1146.75 ppb; Pyrazine, ethyl- concentration [4]: 59.9 ppb; Pyrazine, methyl- concentration [4]: 496.33 ppb; Isovaleraldehyde (Butanal, 3-methyl-) concentration [4]: 15873.58 ppb
1.25 ppb	0 ppb	2.2 ppb	0 ppb	0.02 ppb	0 ppb	0 ppb	0.38 ppb	0 ppb	0 ppb	N[C@@H](Cc1c[nH]cn1)C(=O)O [Histidine]											
										CC(C)C[C@H](N)C(=O)O [Leucine]											2-Butanone concentration [4]: 2.04 ppb; 2-Propanone, 1-hydroxy- concentration [4]: 0.23 ppb; Diacetyl (2,3-Butanedione) concentration [4]: 3.75 ppb; Furan, 2-methyl- concentration [4]: 0 ppb; Furfural concentration [4]: 0.03 ppb; Pyrazine, 2,5-diethyl- concentration [4]: 0 ppb; Pyrazine, 2,5-dimethyl- concentration [4]: 0 ppb; Pyrazine, 2-ethyl-5-methyl- concentration [4]: 1 ppb; Pyrazine, ethyl- concentration [4]: 0 ppb; Pyrazine, methyl- concentration [4]: 0 ppb; Isovaleraldehyde (Butanal, 3-methyl-) concentration [4]: 1.56 ppb
										N[C@@H](Cc1c[nH]c2ccccc12)C(=O)O [Tryptophan]	0.56 ppb	0.05 ppb	2.08 ppb	0 ppb	0.03 ppb	0.02 ppb	8.55 ppb	0 ppb	0 ppb	0.26 ppb	Concentration of Pyrazine, ethyl- [3]: 0 ppb; Concentration of Pyrazine, methyl- [3]: 0 ppb
